This is an account of results in paper PMC3630508 (Molecular immunology, 2012).

For data set [1] the following is noted: aqueous solubility; qualitative, data not shown.
In the next data set the test system is complement activation. The class given is in vivo. The following applies: 20 mg E23A intra-peritoneal, male Wistar rats, one hour.

Consider `CC[C@H](C)[C@H](NC(=O)[C@H](C)NC(=O)[C@@H]1CCCN1)C(=O)N[C@@H](CS)C(=O)N[C@@H](CCC(N)=O)C(=O)N[C@@H](CCCNC(=N)N)C(=O)N[C@@H](C)C(=O)N[C@H](C(=O)N[C@@H](C)C(=O)N[C@H](C(=O)N[C@@H](CC(C)C)C(=O)NCC(=O)N[C@H](C(=O)N[C@H](C(=O)NCC(=O)N[C@@H](CO)C(=O)N[C@@H](CC(N)=O)C(=O)N[C@H](C(=O)N[C@@H](CO)C(=O)NCC(=O)N[C@H](C(=O)N[C@H](C(=O)N[C@@H](CCC(=O)O)C(=O)N[C@H](C(=O)N[C@@H](C)C(=O)N[C@@H](C)C(=O)N[C@@H](CS)C(=O)N[C@H](C(=O)N[C@@H](CC(C)C)C(=O)N[C@@H](CC(C)C)C(=O)O)[C@@H](C)CC)[C@@H](C)CC)[C@@H](C)O)[C@@H](C)O)[C@@H](C)O)C(C)C)[C@@H](C)O)[C@@H](C)O)[C@@H](C)O` [E23A], for which, in data set [1], the “solubility” value was “relative insolubility”. Further, in the data set with complement activation, the “adverse effects / overt toxicity upon necropsy” value is listed as “no overt adverse effects”.

With `CC[C@H](C)[C@H](N)C(=O)N[C@@H](C)C(=O)N[C@@H](CC(C)C)C(=O)N[C@H](C(=O)N[C@@H](CC(C)C)C(=O)N[C@@H](CCC(=O)O)C(=O)N1CCC[C@H]1C(=O)N[C@H](C(=O)N[C@@H](CS)C(=O)N[C@@H](CS)C(=O)N[C@@H](CCC(N)=O)C(=O)N[C@@H](CCC(=O)O)C(=O)N[C@@H](CCCNC(=N)N)C(=O)N[C@@H](C)C(=O)N[C@@H](C)C(=O)O)[C@@H](C)CC)[C@@H](C)CC` [PA], the “solubility” value in data set [1] is given as “aqueous solubility of the compound was significantly improved”.
